Results taken from patent US20250367226A1, “ANTI-MALASSEZIA AGENT” (N.T.H Co., Ltd., priority 2024, published 2025).
Where a name gives a salt, the structure may show the parent alone.

System: Malassezia globosa
Assay: Anti-Malassezia test (viability of Malassezia, WST microbial viability assay)
Conditions: for concentration required to inhibit the viability of Malassezia by 20%: 20% inhibition of viability; for viability at 1 µM / viability at 10 µM / viability at 100 µM: Malassezia globosa, 22 h, read-out: viability (%) of Malassezia, relative to negative control taken as 100; for anti-Malassezia effect compared with the positive control drugs: versus streptomycin sulfate, amorolfine hydrochloride, itraconazole
Experimental: The Malassezia strain was cultured in CHROMagar Malassezia/Candida prepared medium (Kanto Chemical Co., Ltd.).
In 1 L of distilled water were dissolved 10 g of D-glucose, 5 g of peptone, 3 g of yeast extract, 3 g of malt extract and 0.1 g of penicillin. The resulting solution was filtered and used for the experiments.
A suspension of Malassezia was prepared to an optical density equivalent to McFarland's Standard No. 3 and 0.5 mL of the suspension was added to tubes. Each of the prepared samples, oleic acid and the YM medium were mixed into the tubes, and Malassezia was cultured at 37° C. for 22 hours. The fungi were stained using Microbial viability assay kit-WST (Dojindo Laboratories) and cultured at 37° C. for 2 hours. The absorbance was measured to calculate the viability of Malassezia. The results are expressed as a percentage (%) relative to a negative control (“control”: with no addition of test substances) taken as 100. A lower percentage indicates a stronger anti-Malassezia effect. The values obtained in the experiments were expressed as the mean±S.E. The significance of the difference in the means between the test substance administration groups and the negative control group was tested by the Dunnett's test. The significance level was set at 5% or 1%.

Compound: CCC(C)n1ncn(-c2ccc(N3CCN(c4ccc(OCC5COC(Cn6cncn6)(c6ccc(Cl)cc6Cl)O5)cc4)CC3)cc2)c1=O (centres unmarked) [Itraconazole, itraconazole, reference compound]
- concentration required to inhibit the viability of Malassezia by 20%: about 10 μM

Compound: C[C@@H]1O[C@@H](OC[C@H]2O[C@@H](Oc3cc(O)c4c(=O)cc(-c5ccc(O)cc5)oc4c3)[C@H](O)[C@@H](O)[C@@H]2O)[C@H](O)[C@H](O)[C@H]1O [Compound 2, apigenin 7-O-α-L-rhamnopyranosyl-(1→6)-β-D-glucopyranoside]
- viability at 1 µM: 83.6%
- viability at 10 µM: 81.4%
- viability at 100 µM: 61.5%
- anti-Malassezia effect compared with the positive control drugs: comparable to or higher than that of the positive control drugs

Compound: CC(=O)c1c(O)cc(O[C@@H]2OC(CO)[C@@H](O)C(O)C2O)c(O[C@@H]2OC(CO)[C@@H](O)C(O)C2O)c1O (some centres unmarked) [Compound 1, inermioside A]
- viability at 1 µM: 93.6%
- viability at 10 µM: 81.3%
- viability at 100 µM: 76.3%
- anti-Malassezia effect compared with the positive control drugs: comparable to or higher than that of the positive control drugs

Compound: [H]/N=C(/N)N[C@H]1[C@H](O)[C@@H](O)[C@H](O[C@@H]2O[C@@H](C)[C@](O)(C=O)[C@H]2O[C@@H]2O[C@@H](CO)[C@H](O)[C@@H](O)[C@@H]2NC)[C@@H](N/C(N)=N\[H])[C@@H]1O [streptomycin sulfate, reference compound]
- concentration required to inhibit the viability of Malassezia by 20%: ≥ 137 µM
- viability at 10 µM: 106%
